Results reported in PubChem BioAssay (NCI).
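Grown in 96-well plates, cells were treated for 48 hours with each compound at five concentrations. Insufficient inhibition: endpoint recorded as highest concentration tested. The concentration for full growth arrest is given as TGI.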

Key:
Test in all cases: NCI anticancer screen, dose series, 48 h
786-0 renal = tested on: 786-0 renal
A498 renal = tested on: A498 renal
A549 NSCLC = tested on: A549 NSCLC
ACHN renal = tested on: ACHN renal
BT-549 breast = tested on: BT-549 breast
CAKI-1 renal = tested on: CAKI-1 renal
COLO 205 colon = tested on: COLO 205 colon
DU-145 prostate = tested on: DU-145 prostate
EKVX NSCLC = tested on: EKVX NSCLC
HCC-2998 colon = tested on: HCC-2998 colon
HCT-116 colon = tested on: HCT-116 colon
HCT-15 colon = tested on: HCT-15 colon
HOP-62 NSCLC = tested on: HOP-62 NSCLC
HOP-92 NSCLC = tested on: HOP-92 NSCLC
HS 578T breast = tested on: HS 578T breast
HT29 colon = tested on: HT29 colon
IGROV1 ovarian = tested on: IGROV1 ovarian
KM12 colon = tested on: KM12 colon
LOX IMVI melanoma = tested on: LOX IMVI melanoma
M14 melanoma = tested on: M14 melanoma
MALME-3M melanoma = tested on: MALME-3M melanoma
MCF7 breast = tested on: MCF7 breast
MDA-MB-231 breast = tested on: MDA-MB-231 breast
MDA-MB-435 = tested on: MDA-MB-435
MDA-N = tested on: MDA-N
NCI-H226 lung = tested on: NCI-H226 lung
NCI-H23 lung = tested on: NCI-H23 lung
NCI-H460 lung = tested on: NCI-H460 lung
NCI-H522 lung = tested on: NCI-H522 lung
NCI/ADR-RES ovarian = tested on: NCI/ADR-RES ovarian
OVCAR-3 ovarian = tested on: OVCAR-3 ovarian
OVCAR-4 ovarian = tested on: OVCAR-4 ovarian
OVCAR-5 ovarian = tested on: OVCAR-5 ovarian
OVCAR-8 ovarian = tested on: OVCAR-8 ovarian
PC-3 prostate = tested on: PC-3 prostate
RXF 393 renal = tested on: RXF 393 renal
SF-268 CNS = tested on: SF-268 CNS
SF-295 CNS = tested on: SF-295 CNS
SF-539 CNS = tested on: SF-539 CNS
SK-MEL-2 melanoma = tested on: SK-MEL-2 melanoma
SK-MEL-28 melanoma = tested on: SK-MEL-28 melanoma
SK-MEL-5 melanoma = tested on: SK-MEL-5 melanoma
SK-OV-3 ovarian = tested on: SK-OV-3 ovarian
SNB-19 CNS = tested on: SNB-19 CNS
SW-620 colon = tested on: SW-620 colon
T-47D breast = tested on: T-47D breast
TK-10 renal = tested on: TK-10 renal
U251 CNS = tested on: U251 CNS
UACC-257 melanoma = tested on: UACC-257 melanoma
UACC-62 melanoma = tested on: UACC-62 melanoma
CCRF-CEM leukemia = tested on: CCRF-CEM leukemia
HL-60(TB) leukemia = tested on: HL-60(TB) leukemia
K-562 leukemia = tested on: K-562 leukemia
MOLT-4 leukemia = tested on: MOLT-4 leukemia
RPMI-8226 leukemia = tested on: RPMI-8226 leukemia
SN12C renal = tested on: SN12C renal
SR leukemia = tested on: SR leukemia
UO-31 renal = tested on: UO-31 renal

Measured: TGI

O=C1C(C(O)(C(F)(F)Cl)C(F)(F)Cl)CCCC1C(O)(C(F)(F)Cl)C(F)(F)Cl (stereo not given)
not listed: CCRF-CEM leukemia | HL-60(TB) leukemia | K-562 leukemia | MOLT-4 leukemia | RPMI-8226 leukemia | SN12C renal | SR leukemia | UO-31 renal
> 10 µM: all other assays above

O=C(O)CSCc1cc2c(O)c(c1)Cc1cc(CSCC(=O)O)cc(c1O)Cc1cc(CSCC(=O)O)cc(c1O)Cc1cc(CSCC(=O)O)cc(c1O)C2
not listed: MDA-MB-231 breast | SK-MEL-5 melanoma | UACC-62 melanoma
> 100 µM: all other assays above
